Entries after “also recorded” stand apart in the source; their conditions may differ.
Legend:
LPS-induced AKI mice = assay: Survival test with a lethal dose of LPS (25 mg/kg body weight); format: in vivo, mouse; settings: LPS 25 mg/kg i.p.; for overall survival rate: end of the experiment (144 h) (FIG. 1D); for mortality: pretreatment (FIG. 1D)
Method: Different components of the treatment regimen were tested, individually and in combination, for their effect on prolonging survival or affecting mortality. A survival test was performed with a lethal dose of LPS (25 mg/kg body weight). As LPS causes AKI, a mouse model was utilized where AKI was induced by parenteral injection of LPS. Animals were treated with IGF-1 and Vitamin C, individually and in combination to evaluate their effect on survival (FIG. 1C). Kaplan Meier survival analysis was conducted between LPS induced systemic-sepsis animals treated with or without IGF-1, Vitamin C or combination therapy measured over the 96 hour-study period. […] No mortality was observed among healthy mice.
Different components of the treatment regimen were tested, individually and in combination, for their effect on prolonging survival or affecting mortality. A survival test was performed with a lethal dose of LPS (25 mg/kg body weight). Animals were treated with all components individually and in combination to evaluate their effect on survival. As LPS causes AKI, a mouse model was utilized where AKI was induced by parenteral injection of LPS. Pretreatment with IGF-1 monotherapy, BTP-2 monotherapy, and IGF-1+BTP-2 combination therapy was evaluated for effect in the mouse model to prevent the animals from succumbing to death due to organ failure in AKI. Mice (7 per groups) were i.p. injected with a lethal dose of LPS (25 mg/kg body weight). A group of mice received an i.p. injection of BTP-2 (16 mg/kg) one hour before LPS injection, and another group of mice received i.m. injection of Lenti-IGF1, 24 hours before LPS injection. A separate group of mice received a combination of IGF-1+BTP-2 as pretreatment. Mice were monitored every 6 hours. […] The mortality of LPS-injected mice that received an IGF-1 (labeled as LPS+IGF-1) pretreatment was 60% within 36 hours, and 88% at the end of the experiment (144 h). Mortality in LPS-injected mice that received BTP-2 (labeled as LPS+BTP-2) pretreatment was 0% within 36 hours, 30% within 48 hours and 72% at 144 hour-time point. However, the mortality in LPS-injected mice that received an IGF-1 and BTP-2 (labeled as LPS+IGF-1+BTP-2) pretreatment was comparatively low, which reached only 15% within 48 hours, and at the end of the 144 hour-time point reached only up to 43% (compared to LPS-No Tx). […] Meanwhile, no mortality was observed among mice treated with PBS, i.e., healthy group.
Experimental Design for IGF-1 and BTP-2 studies—The animal experiments involved B6 mice between 5-8 weeks of age. Most experiments involved five groups of animals: (1) healthy, (2) LPS untreated (LPS-No Tx), (3) IGF-I in vivo gene therapy one day before LPS injection (LPS+IGF-1), (4) BTP-2 16 mg/kg i.p. at the start of the study and the (5) combined therapy with IGF-I and BTP-2 (LPS-IGF-1+BTP-2). For the survival experiment, a lethal dose of LPS (25 mg/kg) was used and all of the untreated animals died by 72 hours. In the other experiments, a sublethal dose of LPS (20 mg/kg) was used.
LPS induced sepsis and subsequent AKI—Female C57BL/6 mice received a sublethal or lethal dose of LPS from E. coli (0127: B8 strain, Sigma Aldrich, St. Louis, MO, USA) in a concentration of 20 or 25 mg/kg body weight administrated in sterile PBS by intraperitoneal injection.
Treatment—In a preventive therapeutic strategy, some of the mice received an intramuscular injection of Lenti-IGF-1 24 hours before LPS injection; whereas, the calcium signaling blocker BTP-2 (16 mg/kg, Cayman Chemical) was administrated 1 hour before LPS injection. Some of the animals received a combination of Lenti-IGF-1 and BTP-2. Control group mice were injected with an equal volume of PBS.

whole lung tissues = assay: Measurements of mRNA expression in the lungs (RT-qPCR), acute lung injury induced by LPS; format: in vivo, mouse; settings: for CD31 gene expression: lungs (FIG. 12A); for VEGF gene expression: lungs (FIG. 12B); for α-SMA gene expression: lungs (FIG. 12C); for TRPC3 gene expression: day 7 (FIG. 10B); for TRPC6 gene expression: day 7 (FIG. 10C); for Orai1 gene expression: day 7 (FIG. 10D); for NGAL expression: day 7 (FIG. 15A); for SP-D expression: day 7 (FIG. 15B); for caspase 3 expression: day 7 (FIG. 15C); for proinflammatory cytokines gene expression (IL-1, IL-6, IL-17, TNF-α, IFN-γ): day 7 (FIGS. 11A-11E); for TLR-4 gene expression: seven days after LPS (FIG. 10A)
Method: Acute Lung Injury Induced by LPS—Female C57BL/6 mice received a sublethal or lethal dose of LPS from Escherichia coli (0127: B8 strain, Sigma Aldrich, St. Louis, MO, USA). LPS in sterile PBS was administered intraperitoneally at 20- or 25-mg/kg body weight.
Treatment for Lung Studies-Lenti-IGF-I was administered intramuscularly 24 h before LPS injection. The TRP and ORAI calcium channel blocker BTP-2 (YM-58483 16 mg/kg, Cayman Chemical, Ann Arbor, MI, USA) was given IP 1 h before LPS injection. Some of the animals received a combination of lenti-IGF-I and BTP-2. Mice in control groups were injected with an equal volume of PBS.
Measurements of mRNA Expression in the Lungs—For the measurement of the mRNA expressions of the whole lung tissues, RT-qPCR was performed. Lung tissues were snap-frozen in liquid nitrogen. According to the manufacturer's instructions, total RNA was isolated using the RNeasy Micro Kit® (Qiagen, Valencia, CA, USA). First-strand cDNA was synthesized using the SuperScript® III Reverse Transcriptase (Life Technologies, Grand Island, NY, USA). Quantitative RT-qPCR was performed and analyzed in an Applied Biosystems 7900HT Real-Time PCR machine (Applied Biosystems, Foster City, CA). The PCR condition was 10 min at 95° C. followed by 40 cycles of 10 s at 95° C. and 15 s at 60° C. The relative amount of mRNA was calculated using the comparative Ct (DDCt) method. All specific amplicons were normalized against GAPDH. Table 2 (SEQ ID Nos:1-36) provides for a list of the primers.

IGF-I: Insulin-like Growth Factor, delivered by a lentiviral vector engineered to express IGF-I injected into skeletal muscle
overall survival rate (LPS-induced AKI mice): 12.5%
mortality (LPS-induced AKI mice; end of the experiment (144 h)): 88%
mortality (LPS-induced AKI mice; within 36 hours): 60%
CD31 gene expression (whole lung tissues): corrected
VEGF gene expression (whole lung tissues): did not affect the VEGF expression
α-SMA gene expression (whole lung tissues): did not indicate such beneficial effects
IFN-γ expression (whole lung tissues; lungs, day 7): decreased; also recorded: corrected
IL-6 expression (whole lung tissues; lungs, day 7): markedly decrease
IL-17 expression (whole lung tissues; lungs, day 7): markedly decreased
TNF-α expression (whole lung tissues; lungs, day 7): marked decreases; also recorded: decreased
TRPC3 gene expression (whole lung tissues; lungs): decreased; also recorded: significant decrease
TRPC6 gene expression (whole lung tissues; lungs): decreased; also recorded: significant decrease
Orai1 gene expression (whole lung tissues; lungs): decreased; also recorded: significant decrease
NGAL expression (whole lung tissues; lungs): significantly reduced the elevated NGAL expression almost to normal
SP-D expression (whole lung tissues; lungs): normalized
caspase 3 expression (whole lung tissues; lungs): corrected the elevated caspase 3 expression
proinflammatory cytokines gene expression (IL-1, IL-6, IL-17, TNF-α, IFN-γ) (whole lung tissues; lungs): decreased the gene expression most of the proinflammatory cytokines to normal; also recorded: remarkably suppressive; also recorded: as effective as BTP-2
TLR-4 gene expression (whole lung tissues; lungs): decreased the TLR-4 gene expression to the normal level

Cc1nnsc1C(=O)Nc1ccc(-n2nc(C(F)(F)F)cc2C(F)(F)F)cc1 [BTP-2, 3,5-bis(trifluoromethyl)pyrazole derivative]
overall survival rate (LPS-induced AKI mice): 28%
mortality (LPS-induced AKI mice; end of the experiment (144 h)): 72%
mortality (LPS-induced AKI mice; within 36 hours): 0%
mortality (LPS-induced AKI mice; within 48 hours): 30%
CD31 gene expression (whole lung tissues): corrected
VEGF gene expression (whole lung tissues): markedly increased the VEGF expression
α-SMA gene expression (whole lung tissues): completely corrected
IFN-γ expression (whole lung tissues; lungs, day 7): decreased; also recorded: corrected
IL-17 expression (whole lung tissues; lungs, day 7): markedly decreased
TNF-α expression (whole lung tissues; lungs, day 7): marked decreases; also recorded: decreased
TRPC3 gene expression (whole lung tissues; lungs): decreased; also recorded: normalized
TRPC6 gene expression (whole lung tissues; lungs): decreased; also recorded: normalized
Orai1 gene expression (whole lung tissues; lungs): significant decrease; also recorded: normalized
calcineurin gene expression (whole lung tissues; lungs, day 7 (FIG. 10E)): decreased; also recorded: normalized
Nfat gene expression (whole lung tissues; lungs, day 7 (FIG. 10F)): decreased; also recorded: normalized
NGAL expression (whole lung tissues; lungs): significantly reduced the elevated NGAL expression almost to normal
SP-D expression (whole lung tissues; lungs): normalized
caspase 3 expression (whole lung tissues; lungs): corrected the elevated caspase 3 expression
proinflammatory cytokines gene expression (IL-1, IL-6, IL-17, TNF-α, IFN-γ) (whole lung tissues; lungs): decreased the gene expression most of the proinflammatory cytokines to normal; also recorded: remarkably suppressive
TLR-4 gene expression (whole lung tissues; lungs): decreased the TLR-4 gene expression to the normal level

— US12714721B2, “Methods of treatment of a cytokine storm” (Loma Linda University Health, priority 2020, dated 2026)
